From US4372948A, “Derivative of saccharide and physiologically active agent containing the same” (Kureha Kagaku Kogyo Kabushiki Kaisha, priority 1980, dated 1983)

Assays:
[1] = tested on: blood pressure; assay: Anti-hypertension activity (reduction of blood pressure); type: in vivo, rat (spontaneous hypertension); details: oral, 300 mg/kg
Experimental: Rats of spontaneous hypertension were orally administered with each of the present compounds as a solution or dispersion in distilled water at a dose rate of 300 mg/kg body weight. After 3 and 6 hours of the administration, the blood pressure of each rat was determined, and the difference between the above-determined value and the value just before the administeration was used as the index of the activity of reducing the blood pressure of the compound.

[2] = tested on: cotton pellet granuloma; assay: Anti-granuloma activity (cotton pellet); type: in vivo, rat; details: Rattus norvegicus, po, 192 h, 7 days, read-out: I.R. against cotton pellet edema
Experimental: Following the method of Winter et al. (1963), each two cotton wool pellets, each weighing 30±1 mg, were implanted into the back of each rats of groups of rats, each group consisting of 6 animals, at the positions of mutually symmetrical concerning the median line of the rat. To these groups of the thus operated rats, the present compounds were respectively administered orally and forcibly as a solution or dispersion in distilled water for 7 continuous days, once a day at a dose of 1000 mg/kg/day. On 8th day of the implantation, the granuloma was extirpated and the dry weight of the granuloma was measured, the rate of inhibiting the proliferation of granuloma being obtained as in (5-1) being shown in Table 8.

[3] = tested on: acetic acid writhing; assay: Analgetic activity against chemical stimulation of acetic acid (writhing); type: in vivo, mouse (ICR female); details: Mus musculus, po, 30 min before 0.6% acetic acid, read-out: I.R. of writhing
Excerpt: (§1) Rate of inhibition (I.R.) (%)=(1-T/C)×100
T represents the average number of writhing of the group of mice administered with the present compound and injected with acetic acid, and C represents the average number of writhing of the group of mice only injected with acetic acid (control).

[4] = in vivo; details: mouse, in vivo, po, mice, 7 days observation, read-out: LD50, acute oral toxicity
[5] = tested on: beta-lipoprotein; assay: Anti-hyperlipemia activity, beta-lipoprotein in blood; type: in vivo, rabbit (Japanese white male); details: oral, 300 mg/kg once
Experimental: (§2) Japanese white male rabbits were fed for 3 months with a solid diet containing 1% of cholesterol taken ad lib, and after confirming the raised lipid content of the serum of the rabbits, they were utilized as model animals suffering from experimental arteriosclerosis. Each of the present compounds was administered orally as a solution or dispersion in distilled water to the experimental animals of each group at a dose rate of 300 mg/kg once, and blood samples were taken at a predetermined time interval from the auricular vein of each animal. The content of cholesterol in the blood specimen was traced as the time passed by, with an enzymatic method, and the content of beta-lipoprotein in the same blood specimen was traced with a colorimetry. Each value in Table 7 is the difference between the level just before administration and the level after 3 or 6 hours of the administration.

[6] = tested on: carrageenin edema; assay: Anti-Carrageenin edema activity; type: in vivo, rat; details: Rattus norvegicus, po, 1000 mg/kg once, read-out: I.R. against carrageenin edema
Experimental: After orally administering each of the present compounds forcibly to each group of rats, composed of 10 animals, as a solution or dispersion in distilled water at a dose of 1000 mg/kg once, 0.1 ml of an aqueous dispersion of 1% carrageenin in aqueous physiological saline solution was injected into the foot pad of the right hind leg of the administered animal following Van Arman et al. (1963). Thereafter, the thickness of the foot pad was measured at a time interval to find the rate of inhibiting of the swelling of the foot pad according to the following formula:
as §1
T means the average volume of the foot pad of the animals administered with one of the present compounds and carrageenin, and
C means that of the animal not administered with the present compound, however, administered with carrageenin.

[7] = tested on: exudation; assay: Anti-exudation activity (air pouch, croton oil); type: in vivo, rat; details: Rattus norvegicus, po, 144 h, 5 days, read-out: I.R. against exudation
Experimental: Following the method of Baris et al. (1965), air was injected subcutaneously into the back of groups of rats, each group consisting of 6 animals to make an air pouch, and 0.5 ml of sesame oil containing 1% by weight of croton oil was injected into the air pouch. Each of the present compounds was orally administered forcibly to each of the groups of rats as a solution or dispersion in distilled water at a dose rate of 1000 mg/kg/day for continued five days. The amount of liquid exudated into the air pouch was measured on 6th day of the operation. The rate of inhibiting the exudation of the liquid was obtained by the same manner as in (5-2) and the results are shown also in Table 8.

[8] = tested on: total cholesterol; assay: Anti-hyperlipemia activity, total cholesterol in blood; type: in vivo, rabbit (Japanese white male); details: oral, 300 mg/kg once; for Reduction of cholesterol level after 3 hrs.: negative = raising
Experimental: as §2

[9] = tested on: Sarcoma-180; assay: Anti-tumour activity against Sarcoma-180; type: in vivo, mouse (ICR-JCL); details: Mus musculus, Sarcoma-180, po, 600 h, 10 times every other day, tumour weight on 25th day, read-out: Antitumour activity, inhibiting rate (I.R.)
Experimental: Sarcoma-180 was transplanted into the axillary part of ICR-JCL mice at a rate of 1×10^6 cells/animal, and after 24 hours of transplantation, each of the present compounds as a solution or dispersion in sterilized physiological saline solution was orally administered to each of the transplanted mice 10 times every other day at a dose of 500 mg/kg/time. On 25th day of the transplantation, tumour node(s) were extirpated from all the mice to determine the weight of the tumour nodes.
Antitumour activity (activity of inhibiting the proliferation of the transplanted sarcoma) of each of the present compounds was derived by the following formula and shown in Table 6:
Antitumour activity (Inhibiting rate, I.R.)=(1-T/C)×100(%).
T represents the total weight of tumour nodes of the group of mice transplanted and administered with the present compound, and
C represents the total weight of tumour nodes of the group of mice transplanted, however, not administered with any agents.

[10] = tested on: pseudo-escaping reaction to tail pressure; assay: Analgetic activity against mechanical stimulation of pressure; type: in vivo, mouse (ICR female); details: oral, 1000 mg/kg
[11] = tested on: pyrexia (Saccharomyces cerevisiae); assay: Anti-pyrexia activity (yeast-induced); type: in vivo; details: Rattus norvegicus, oral, read-out: Rate of inhibiting pyrexia (I.R.)
Experimental: Following the method of Winter et al. (1961), an aqueous dispersion of 20% by weight of Saccharomyces cerevisiae was subcutaneously injected into groups of rats, each group consisting of 6 animals, and after 10-hour fasting, 1000 mg/kg of each of the present compounds was orally administered to the rat as a solution of dispersion in distilled water, and then the rectal temperature of the rat was measured at a predetermined interval of time to find the lowest temperature.
The anti-pyrexia activity of each compound was obtained from the following formula: […]
Anti-pyrexia activity represented by the rate of inhibition (I.R.)
C2 represents the average rectal temperature of negative control (non-treatment), not injected with the yeast and not administered with the present compound,
C1 represents the average temperature of positive control, injected with the yeast and not administered with the compound and T represents the temperature of tested animals, injected with the yeast and administered with the present compound.

[12] = tested on: level of blood sugar; assay: Anti-hyperglycemia activity (reduction of blood sugar level); type: in vivo, rat (Wistar, streptozotocin); details: oral, 300 mg/kg
Experimental: A group of Wistar rats to which at first streptozotocin was interperitoneally administered at a rate of 60 mg/kg and of which the positivity of glycosuria was confirmed after a week of the administration and to which regular insulin was further administered and of which the reduction of levels of glucose in urine and blood was once confirmed, however, of which hyperglycemia and hyperglycosuria were again confirmed after a few days was chosen and used as model animals of glycosuria in the following test. After orally administering each of the present compounds to the model animals at a dose of 300 mg/kg body weight, as a solution or dispersion in distilled water, the blood was collected two times, respectively after 3 and 6 hours of the administration.

| Compound | Reduced level of blood pressure after 3 hrs. [1] [mm Hg] | Reduced level of blood pressure after 6 hrs. [1] [mm Hg] | inhibition in vivo at 1000 mg/kg/day [2] [%] | inhibition in vivo at 1000 mg/kg [3] [%] | LD50 at 168 h [4] [mg/kg] | Reduction of beta-lipoprotein level after 3 hrs. [5] [mg/dL] | Reduction of beta-lipoprotein level after 6 hrs. [5] [mg/dL] | inhibition in vivo at 1000 mg/kg [6] [%] | inhibition in vivo at 1000 mg/kg/day [7] [%] | Reduction of cholesterol level after 3 hrs. [8] [mg/dL] | Reduction of cholesterol level after 6 hrs. [8] [mg/dL] | inhibition in vivo at 500 mg/kg [9] [%] | Pseudo-escapting reaction pressure [10] [mmHg] | Pseudo-escapting reaction time [10] [s] | inhibition in vivo at 1000 mg/kg [11] [%] | Reduced level of blood sugar after 3 hrs. [12] [mg/dL] | Reduced level of blood sugar after 6 hrs. [12] [mg/dL] |
| --- | --- | --- | --- | --- | --- | --- | --- | --- | --- | --- | --- | --- | --- | --- | --- | --- | --- |
| O=C(Oc1ccccc1)c1ccc(NC2OC[C@@H](O)[C@H](O)[C@H]2O)cc1 (stereo partly drawn) [Compound 8, phenyl p-aminobenzoate-N-D-xyloside] | 18 | 20 | 5.6 | 20 | 13500 | 128 | 144 | 21.4 | 15.7 | 6 | 46 | 53 | 80 | 39 | 47 | 106 | 140 |
| O=C(Oc1ccccc1)c1ccc(NC2O[C@H](CO)[C@@H](O[C@@H]3O[C@H](CO)[C@@H](O)[C@H](O)[C@H]3O)[C@H](O)[C@H]2O)cc1 (some centres unmarked) [Compound 9, phenyl p-aminobenzoate-N-cellobioside] | 25 | 28 | 7.9 | 28 | > 15000 | 126 | 136 | 3.7 | 18.8 | -1 | 40 | 40 | 86 | 38 | 32 | 85 | 121 |
| O=C(Oc1ccccc1)c1ccc(NC2O[C@H](CO)[C@@H](O[C@H]3O[C@H](CO)[C@@H](O[C@H]4O[C@H](CO)[C@@H](O)[C@H](O)[C@H]4O)[C@H](O)[C@H]3O)[C@H](O)[C@H]2O)cc1 (some centres unmarked) [Compound 10, phenyl p-aminobenzoate-N-maltotrioside] | 18 | 18 | 19.6 | 30 | 12400 | 106 | 111 | 6.6 | 7.5 | -5 | 33 | 39 | 86 | 36 | 41 | 99 | 106 |
| C[C@@H]1OC(Nc2cccc(C(=O)OCc3ccccc3)c2)[C@@H](O)[C@H](O)[C@@H]1O (stereo partly drawn) [Compound 11, benzyl m-aminobenzoate-N-L-fucoside] | 21 | 25 | 4.4 | 17 | 9700 | 98 | 109 | 22.8 | 11 | -1 | 50 | 40 | 74 | 35 | 29 | 75 | 88 |
